Measured values taken from patent US4638070A, “Heterocyclic amino-alcohol derivatives” (Continental Pharma, priority 1980, dated 1987).

Columns and labels:
[1] = Acute toxicity, oral, LD50 (Litchfield and Wilcoxon); settings: mouse, in vivo, fasted male mice, confidence limits p=95% in brackets
Protocol: (1) The acute toxicity was determined on fasted male mice. The tested substances were orally administered and LD50 values (lethal dose for 50% of animals) were calculated according to the method of Litchfield and Wilcoxon (J. Pharmacol. exp. Ther. 96, 94-113, 1949). These LD50 values are given in mg/kg and also, when possible, with their confidence limits for p=95%.

[2] = tested on: unanaesthetized, hypertension-suffering rat; assay: Antihypertensive activity (systolic arterial pressure), oral; type: in vivo; settings: 60 mg/kg, hypertensive rat, 3 hours
Outline: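 Conscious hypertensive rats given compound orally at 60 mg/kg; systolic arterial pressure measured every 30 min for 2 h pre-dose and 3 h post-dose. Scored O (no fall), + (<10 mm Hg), ++ (10–20 mm Hg), +++ (>20 mm Hg).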

[3] = tested on: femoral artery; assay: Vasodilator activity, femoral artery (technique of perfused paw); type: in vivo; parameters: key: O: no action; +: slight activity; ++: effect equal to half the effect of papaverine; +++: effect equal to that of papaverine; ++++: effect higher than that of papaverine; settings: intra-arterial, 30 mg/kg, anaesthetized dog, vs papaverine at same dose
Protocol: (3) The vasodilator activity was measured at the level of femoral artery on anaesthetized dog (technique of perfused paw). The tested substances were given intra-arterially at the rate of 30 mg/kg. Results are expressed with respect to papaverine tested at the same dose.
++: effect equal to half the effect of papaverine.
+++: effect equal to that of papaverine.
++++: effect higher than that of papaverine.

[4] = tested on: guinea-pig ileum (histamine contractions); assay: Antispasmodic activity in vitro, contractions caused by histamine; settings: added 15 minutes before spasm-producing agent
Protocol: (§1) (4) The antispasmodic activity was measured in vitro, on guinea-pig ileum, the contractions of which were caused by histammne (Hist.), acetylcholine (Achol) or barium chloride (BaCl2). The tested products were added to perfusion bath 15 minutes before the spasm-producing agents.
(§2) The dose is given in micograms (μg) per ml of bath causing complete spasm inhibition.

[5] = tested on: guinea-pig ileum (acetylcholine contractions); assay: Antispasmodic activity in vitro, contractions caused by acetylcholine; settings: added 15 minutes before spasm-producing agent
Protocol: as §1, §2

[6] = tested on: guinea-pig ileum (barium chloride contractions); assay: Antispasmodic activity in vitro, contractions caused by barium chloride; settings: added 15 minutes before spasm-producing agent
Protocol: as §1, §2

Molecule | LD50 [1] [mg/kg] | ANTIHYPERTENSIVE ACTIVITY [2] | VASODILATOR ACTIVITY [3] | ANTISPASMODIC ACTIVITY HIST. (dose causing complete spasm inhibition) [4] [μg per ml] | ANTISPASMODIC ACTIVITY ACHOL (dose causing complete spasm inhibition) [5] [μg per ml] | ANTISPASMODIC ACTIVITY BaCl2 (dose causing complete spasm inhibition) [6] [μg per ml]
CC(NCCCc1ccccc1)C(O)c1ccc2c(c1)CCCS2 (centres unmarked) [No 17] | > 4000 | +++ (reduction higher than 20 mm Hg) | +++ | 0.8 | 1.7 | 1.7
CC(NCCCCSc1ccccc1)C(O)c1ccc2c(c1)CCCS2 (centres unmarked) [No 25] | > 4000 | – | – | 0.8 | 0.8 | 0.8
1-(5-indanyl)-2-(4-phenylbutylamino)-1-propanol [No 163] | – | +++ (reduction higher than 20 mm Hg) | ++++ | 0.33 | 0.8 | 0.8
CCCCCCCCNC(C)C(O)c1ccc2c(c1)CCC(C)S2 (centres unmarked) [No 4] | 4000 | – | +++ | – | – | > 16.7
CC(NCCc1ccccc1)C(O)c1ccc2c(c1)CCCCS2 (centres unmarked) [No 14] | – | – | +++ | 1.7 | 3.3 | 1.7
CC(NCCOc1ccccc1)C(O)c1ccc2c(c1)CCCS2 (centres unmarked) [No 20] | > 4000 | +++ (reduction higher than 20 mm Hg) | +++ | 8.3 | 3.3 | 8.3
CC(NCCCCOc1ccccc1)C(O)c1ccc2c(c1)CCCS2 (centres unmarked) [No 24] | > 4000 | – | +++ | 0.33 | 1.7 | 1.7
CC(NCC(c1ccccc1)c1ccccc1)C(O)c1ccc2c(c1)CCCS2 (centres unmarked) [No 21] | – | – | +++ | 0.33 | 0.33 | 1.7
CC(NC1CCCCCCC1)C(O)c1ccc2c(c1)CCS2 (centres unmarked) [No 28] | 580 | – | + | 0.8 | 1.7 | 1.7
CC(NCCCCc1ccccc1)C(O)c1ccc2c(c1)CCCS2 (centres unmarked) [No 2] | > 4000 | +++ (reduction higher than 20 mm Hg) | ++++ | 1.7 | 8.3 | 16.7
CCCCCCCCNC(C)C(O)c1ccc2c(c1)CCS2 (centres unmarked) [No 3, 1-(2,3-dihydro-5-benzo[b]thienyl)-2-n-octylamino-1-propanol] | 4450 | +++ (reduction higher than 20 mm Hg) | +++ | 8.3 | 16.7 | 8.3
CC1CCc2cc(C(O)C(C)NCCc3ccccc3)ccc2S1 (centres unmarked) [No 9] | ~2750 | – | +++ | 3.3 | 3.3 | 0.8
